Source: patent publication US10806785B2, “Immunomodulator compounds and methods of use” (Incyte Corporation, priority 2016, dated 2020)
Residues, ends and D or L forms follow the SMILES beside them.

Tests used:
PD-1/PD-L1 [1] = biological target: T1, PD-1/PD-L1 (Homo sapiens (Human), UniProt Q9NZQ7); experiment: PD-1/PD-L1 binding assay (Alphascreen)
Protocol: Binding assays were conducted in a low volume white 384-well polystyrene plate in a final volume of 20 μL. Compounds to be analyzed were first serially diluted in DMSO and added to the plate wells before the addition of other reaction components. The final concentration of DMSO in the assay was 1%. The assay was carried out at 25° C. in the PBS buffer (pH 7.4) with 0.05% Tween-20 and 0.1% BSA. Recombinant human PD-L1 protein (19-238) with a His-tag at the C-terminus was purchased from AcroBiosystems (PD1-H5229). Recombinant human PD-1 protein (25-167) with Fc tag at the C-terminus was also from AcroBiosystems (PD1-H5257). PD-L1 and PD-1 proteins were diluted in the assay buffer (final concentration −0.67 and 0.20 nM respectively) and 10 μL was added to the plate well. Plates were centrifuged and proteins were preincubated with compounds for 40 minutes. The incubation was followed by the addition of 10 μL of assay buffer supplemented with Alphascreen Ni chelate donor beads (PerkinElmer-AS101D) and Protein A Acceptor beads (PerkinElmer-6760137) at final concentration 2.5 μg/mL under reduced light. After plate sealing, the plate was incubated in the dark at room temperature for 120 minutes before reading on a PHERAstar FS plate reader (BMG Labtech). […]

PD-1/PD-L1 [2] = biological target: T1, PD-1/PD-L1; experiment: PD-1/PD-L1 binding assay (HTRF)
In short: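 HTRF read-out (665/620 nm) after 60 min at 25 °C with 1 nM Eu anti-human IgG and 20 nM APC anti-His. Beforehand, inhibitors were preincubated 40 min with Fc-PD-1 (25-167, […] as listed) and His-PD-L1 (19-238, 10 nM) in PBS pH 7.4 with Tween-20, BSA, 1% DMSO; IC50 from log-concentration curve.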

T1 sequence (Q9NZQ7 19-238): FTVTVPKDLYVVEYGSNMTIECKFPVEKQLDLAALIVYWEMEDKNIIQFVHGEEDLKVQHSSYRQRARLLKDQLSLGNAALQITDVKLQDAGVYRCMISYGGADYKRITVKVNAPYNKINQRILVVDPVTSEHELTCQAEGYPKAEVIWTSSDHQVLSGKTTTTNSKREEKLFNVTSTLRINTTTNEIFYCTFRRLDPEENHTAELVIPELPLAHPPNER

Row | IC50 (PD-1/PD-L1 [1]) [nM] | IC50 (PD-1/PD-L1 [2]) [nM] | SMILES
1 | > 1 |  | CCCC[C@H]1C(=O)N(C)CC(=O)N[C@@H](CC(=O)O)C(=O)N[C@@H](C(C)C)C(=O)N(C)[C@@H](Cc2ccccc2)C(=O)N[C@@H](Cc2ccc(O)cc2)C(=O)N(C)CC(=O)N[C@@H](Cc2c[nH]c3ccccc23)C(=O)N[C@@H](Cc2ccc(O)cc2)C(=O)N[C@@H](CC(C)C)C(=O)N[C@H](C(=O)NCC(N)=O)CSCC(=O)N[C@@H](Cc2ccccc2)C(=O)N(C)[C@@H](Cc2ccccc2)C(=O)N1C [Cpd 27] (HELM PEPTIDE1{[O=C(C[*:3])[*:2]].F.[meF].[CCCC[C@@H](C(=O)[*:2])N(C)[*:1]].[Sar].D.V.[meF].Y.[Sar].W.Y.L.C.G.[am]}$PEPTIDE1,PEPTIDE1,1:R3-14:R3$$$V2.0)
2 |  | ≤ 10 | Cc1c(NC(=O)c2nc3c(n2C)CCN(C2CCOCC2)C3)cccc1-c1cccc(NC(=O)c2nc3c(n2C)CCN(C[C@H]2CC[C@H](C(=O)O)CC2)C3)c1Cl [Example 123, trans-4-((2-((2-chloro-2′-methyl-3′-(1-methyl-5-(tetrahydro-2H-pyran-4-yl)-4,5,6,7-tetrahydro-1H-imidazo[4,5-c]pyridine-2-carboxamido)-[1,1′-biphenyl]-3-yl)carbamoyl)-1-methyl-1,4,6,7-tetrahydro-5H-imidazo[4,5-c]pyridin-5-yl)methyl)cyclohexane-1-carboxylic acid]
3 |  | ≤ 10 | Cc1c(NC(=O)c2nc3c(n2C)CCN(C2CCOCC2)C3)cccc1-c1cccc(NC(=O)c2nc3c(n2C)CCN(CCc2ccc(C(=O)O)cc2)C3)c1Cl [Example 124, 4-(2-(2-((2-chloro-2′-methyl-3′-(1-methyl-5-(tetrahydro-2H-pyran-4-yl)-4,5,6,7-tetrahydro-1H-imidazo[4,5-c]pyridine-2-carboxamido)-[1,1′-biphenyl]-3-yl)carbamoyl)-1-methyl-1,4,6,7-tetrahydro-5H-imidazo[4,5-c]pyridin-5-yl)ethyl)benzoic acid]
4 |  | ≤ 10 | Cc1c(NC(=O)c2nc3c(n2C)CCN(C2CCOCC2)C3)cccc1-c1cccc(NC(=O)c2nc3c(n2C)CCN(C2CCC(C(=O)O)CC2)C3)c1Cl (centres unmarked) [Example 125, 4-(2-((2-chloro-2′-methyl-3′-(1-methyl-5-(tetrahydro-2H-pyran-4-yl)-4,5,6,7-tetrahydro-1H-imidazo[4,5-c]pyridine-2-carboxamido)-[1,1′-biphenyl]-3-yl)carbamoyl)-1-methyl-1,4,6,7-tetrahydro-5H-imidazo[4,5-c]pyridin-5-yl)cyclohexane-1-carboxylic acid]
5 |  | ≤ 10 | Cc1c(NC(=O)c2nc3c(n2C)CCNC3)cccc1-c1cccc(NC(=O)c2nc3c(n2C)CCN(CC[C@H]2CC[C@H](C(=O)O)CC2)C3)c1Cl [Example 126, trans-4-(2-(2-((2-chloro-2′-methyl-3′-(1-methyl-4,5,6,7-tetrahydro-1H-imidazo[4,5-c]pyridine-2-carboxamido)-[1,1′-biphenyl]-3-yl)carbamoyl)-1-methyl-1,4,6,7-tetrahydro-5H-imidazo[4,5-c]pyridin-5-yl)ethyl)cyclohexane-1-carboxylic acid]
6 |  | ≤ 10 | CCN1CCc2c(nc(C(=O)Nc3cccc(-c4cccc(NC(=O)c5nc6c(n5C)CCN(CC[C@H]5CC[C@H](C(=O)O)CC5)C6)c4Cl)c3C)n2C)C1 [Example 127, trans-4-(2-(2-((2-chloro-3′-(5-ethyl-1-methyl-4,5,6,7-tetrahydro-1H-imidazo[4,5-c]pyridine-2-carboxamido)-2′-methyl-[1,1′-biphenyl]-3-yl)carbamoyl)-1-methyl-1,4,6,7-tetrahydro-5H-imidazo[4,5-c]pyridin-5-yl)ethyl)cyclohexane-1-carboxylic acid]
7 |  | ≤ 10 | Cc1c(NC(=O)c2nc3c(n2C)CCN(CC2CC2)C3)cccc1-c1cccc(NC(=O)c2nc3c(n2C)CCN(CC[C@H]2CC[C@H](C(=O)O)CC2)C3)c1Cl [Example 128, trans-4-(2-(2-((2-chloro-3′-(5-(cyclopropylmethyl)-1-methyl-4,5,6,7-tetrahydro-1H-imidazo[4,5-c]pyridine-2-carboxamido)-2′-methyl-[1,1′-biphenyl]-3-yl)carbamoyl)-1-methyl-1,4,6,7-tetrahydro-5H-imidazo[4,5-c]pyridin-5-yl)ethyl)cyclohexane-1-carboxylic acid]
8 |  | ≤ 10 | Cc1c(NC(=O)c2nc3c(n2C)CCN(C(C)C)C3)cccc1-c1cccc(NC(=O)c2nc3c(n2C)CCN(CC[C@H]2CC[C@H](C(=O)O)CC2)C3)c1Cl [Example 129, trans-4-(2-(2-((2-chloro-3′-(5-isopropyl-1-methyl-4,5,6,7-tetrahydro-1H-imidazo[4,5-c]pyridine-2-carboxamido)-2′-methyl-[1,1′-biphenyl]-3-yl)carbamoyl)-1-methyl-1,4,6,7-tetrahydro-5H-imidazo[4,5-c]pyridin-5-yl)ethyl)cyclohexane-1-carboxylic acid]
9 |  | ≤ 10 | Cc1c(NC(=O)c2nc3c(n2C)CCN(C2CCCC2)C3)cccc1-c1cccc(NC(=O)c2nc3c(n2C)CCN(CC[C@H]2CC[C@H](C(=O)O)CC2)C3)c1Cl [Example 130, trans-4-(2-(2-((2-chloro-3′-(5-cyclopentyl-1-methyl-4,5,6,7-tetrahydro-1H-imidazo[4,5-c]pyridine-2-carboxamido)-2′-methyl-[1,1′-biphenyl]-3-yl)carbamoyl)-1-methyl-1,4,6,7-tetrahydro-5H-imidazo[4,5-c]pyridin-5-yl)ethyl)cyclohexane-1-carboxylic acid]
10 |  | ≤ 10 | Cc1c(NC(=O)c2nc3c(n2C)CCN(C2CCCCC2)C3)cccc1-c1cccc(NC(=O)c2nc3c(n2C)CCN(CC[C@H]2CC[C@H](C(=O)O)CC2)C3)c1Cl [Example 131, trans-4-(2-(2-((2-chloro-3′-(5-cyclohexyl-1-methyl-4,5,6,7-tetrahydro-1H-imidazo[4,5-c]pyridine-2-carboxamido)-2′-methyl-[1,1′-biphenyl]-3-yl)carbamoyl)-1-methyl-1,4,6,7-tetrahydro-5H-imidazo[4,5-c]pyridin-5-yl)ethyl)cyclohexane-1-carboxylic acid]
11 |  | ≤ 10 | Cc1c(NC(=O)c2nc3c(n2C)CCN(CCO)C3)cccc1-c1cccc(NC(=O)c2nc3c(n2C)CCN(CC[C@H]2CC[C@H](C(=O)O)CC2)C3)c1Cl [Example 132, trans-4-(2-(2-((2-chloro-3′-(5-(2-hydroxyethyl)-1-methyl-4,5,6,7-tetrahydro-1H-imidazo[4,5-c]pyridine-2-carboxamido)-2′-methyl-[1,1′-biphenyl]-3-yl)carbamoyl)-1-methyl-1,4,6,7-tetrahydro-5H-imidazo[4,5-c]pyridin-5-yl)ethyl)cyclohexane-1-carboxylic acid]
12 |  | ≤ 10 | Cc1c(NC(=O)c2nc3c(n2C)CCN(C2CCOCC2)C3)cccc1-c1cccc(NC(=O)c2nc3c(n2C)CCN(C[C@H]2CC[C@@H](C(=O)O)CC2)C3)c1Cl [Example 136, cis-4-((2-((2-chloro-2′-methyl-3′-(1-methyl-5-(tetrahydro-2H-pyran-4-yl)-4,5,6,7-tetrahydro-1H-imidazo[4,5-c]pyridine-2-carboxamido)-[1,1′-biphenyl]-3-yl)carbamoyl)-1-methyl-1,4,6,7-tetrahydro-5H-imidazo[4,5-c]pyridin-5-yl)methyl)cyclohexane-1-carboxylic Acid]
13 |  | ≤ 10 | C[C@H](O)CN1CCc2c(nc(C(=O)Nc3cccc(-c4cccc(NC(=O)c5nc6c(n5C)CCN(CC57CCC(C(=O)O)(CC5)C7)C6)c4Cl)c3Cl)n2C)C1 [Example 181, (S)-4-((2-(2,2′-dichloro-3′-(5-(2-hydroxypropyl)-1-methyl-4,5,6,7-tetrahydro-1H-imidazo[4,5-c]pyridine-2-carboxamido)biphenyl-3-ylcarbamoyl)-1-methyl-6,7-dihydro-1H-imidazo[4,5-c]pyridin-5(4H)-yl)methyl)bicyclo[2.2.1]heptane-1-carboxylic acid]
14 |  | ≤ 10 | C[C@@H](O)CN1CCc2c(nc(C(=O)Nc3cccc(-c4cccc(NC(=O)c5nc6c(n5C)CCN(CC57CCC(C(=O)O)(CC5)C7)C6)c4Cl)c3Cl)n2C)C1 [Example 182, (R)-4-((2-(2,2′-dichloro-3′-(5-(2-hydroxypropyl)-1-methyl-4,5,6,7-tetrahydro-1H-imidazo[4,5-c]pyridine-2-carboxamido)biphenyl-3-ylcarbamoyl)-1-methyl-6,7-dihydro-1H-imidazo[4,5-c]pyridin-5(4H)-yl)methyl)bicyclo[2.2.1]heptane-1-carboxylic acid]
